The source of these data is patent EP4692072A1, “PHOTOCHROMIC COMPOUND, PROPARGYL ALCOHOL COMPOUND, CURABLE COMPOSITION, OPTICAL ARTICLE, LENS, AND SPECTACLES” (TOKUYAMA CORPORATION, priority 2023, dated 2024).

Molecules are shown by their SMILES.

Series [1] can be described thus: Photochromic properties of photochromic laminate (plastic lens) prepared by coating method. The class given is physicochemical. The note with it: 40 µm photochromic layer on thiourethane lens, 0.25 mmol compound per 100 g monomers, after color development. In short, it runs like this:
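Compound at 0.25 mmol per 100 g methacrylate monomers in a 40 µm spin-coated layer on a primed 2 mm thiourethane lens, photocured under N2, then heated 110°C 1 h. Spectrophotometer read-out after 300 s irradiation at 23°C: λmax, colour density, fading half-life; residual rate after 120 h xenon ageing.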

A short description of series [2]: Photochromic properties of photochromic cured product prepared by kneading method. In kind it is physicochemical. The note with it: 0.106 mmol per 100 g monomer; for A23: 1 mm cured product, 23°C color optical density ε(300)-ε(0); for Maximum absorption wavelength: 1 mm thiourethane cured product, after color development. As for the experimental part: • [1] Maximum Absorption Wavelength (λmax): The maximum absorption wavelength after color development, measured using a spectrophotometer (instantaneous multichannel photodetector MCPD3000) manufactured by Otsuka Electronics Co., Ltd. was used as an indicator for the color tone during the color development. • [2] 23°C Color Optical Density (A23): A difference between an absorbancy measured after light irradiation at 23°C for 300 seconds {ε(300)} and an absorbancy without light irradiation ε(0) at the maximum absorption wavelength was used as an indicator for the color optical density. […] 23°C color fading half-life [τ1/2 (sec.)]: A time required for the absorbancy of the sample at the maximum absorption wavelength to decrease to 1/2 of {ε(300)-ε(0)} when the light irradiation was terminated after the light irradiation at 23°C for 300 seconds, was used as an indicator for the color fading speed. The shorter this time, the higher the color fading speed. • [4] Residual rate (A120/A0×100): The obtained photochromic plastic lens was subjected to accelerated deterioration using a xenon weather meter X25 manufactured by Suga Test Instruments Co., Ltd. for 120 hours. Subsequently, the color optical density was evaluated before and after the test, then a color optical density before the test (A0) and a color optical density after the test (A120) were measured, and a ratio (A120/A0) was defined as a residual rate. The residual rate was used as an indicator for a color developing durability. The higher the residual rate, the higher the color developing durability. The results of Examples 26, 50, and Comparative Examples 1 to 8 are summarized in Table 1, and the results of Examples 27 to 49 are summarized in Tables 2 and 3.
First, the photochromic compound obtained in Example 1, additives, and a polymerizable compound were mixed to obtain a curable composition.
As the polymerizable compound, a combination of the following polymerizable monomers was used. • 1,3-bis(isocyanatomethyl)cyclohexane: 36.7 parts by mass Pentaerythritol tetrakis(3-mercaptopropionate): 39.4 parts by mass • Polyoxyethylene polyoxypropylene lauryl ether (Wonder Surf 140 manufactured by Aoki Oil Industrial Co., Ltd.): 17.4 parts by mass • 1-decanethiol: 2.8 parts by mass • RX-1 adjusted according to the method described in Patent Document 13: 3.8 parts by mass
Note that the photochromic compound was added to the curable composition so that the amount of the photochromic compound was 0.106 mmol based on 100 g of the total amount of the polymerizable monomer. The following additives were used: Dimethyltin dichloride • : 0.05 part by mass • Irganox 245: 0.1 part by mass • 2-ethylhexyl 4-methoxycinnamate: 0.6 part by mass
The prepared curable composition was thoroughly defoamed, then injected into a glass mold having a 1 mm gap, and polymerized by cast polymerization. The polymerization was carried out in an air furnace while gradually raising the temperature from 27°C to 120°C over 18 hours. After the polymerization, the cured product was removed from the glass mold to obtain a photochromic cured product having a thickness of 1 mm. The obtained photochromic cured product was evaluated in the same manner as in Example 26.
(Examples 85 to 99, and Comparative Example 14 to 18) Photochromic cured products were prepared using photochromic compounds presented in Tables 6 and 7 in the same manner as in Example 84. The results of Examples 84 and 85 and Comparative Examples 14 to 18 are summarized in Table 6, and the results of Examples 86 to 99 are summarized in Table 7.

`COc1ccc(C2(c3ccc(N(C)c4ccccc4)cc3)C=Cc3c4c(c5cc(-c6ccc(N7CCOCC7)cc6)c(OC)cc5c3O2)-c2ccccc2C4(C)C)cc1` (stereo not drawn) [Example 1]: the Maximum absorption wavelength in series [1] worked out at 502 nm; in series [1] (listed as Formula (37)), 601 nm; in series [2], 503 nm; in series [2] (listed as Formula (37)), 610 nm. Further, the A23 is recorded as 0.96 - in series [2] and 1.06 - in series [2] (listed as Formula (37)).

Take `CCCC1(CCC)c2ccccc2-c2c1c1c(c3cc(OC)c(-c4ccc(OC)cc4OC)cc23)OC(c2ccc(N(C)c3ccccc3)cc2)(c2ccc(OC)c(F)c2)C=C1` (stereo not drawn) [Example 7]: the Maximum absorption wavelength in series [1] amounted to 496 nm; in series [1] (listed as Formula (55)), 603 nm; in series [2], 499 nm; in series [2] (listed as Formula (55)), 610 nm. For the same compound, the values for the A23 in series [2] and in series [2] (listed as Formula (55)) were 0.75 - and 0.99 -, respectively.

Consider `CCCC1(CCC)c2ccccc2-c2c1c1c(c3cc(OC)c(-c4ccc(N(C)c5ccccc5)cc4)cc23)OC(c2ccc(C)cc2)(c2ccc(N(C)c3ccccc3)cc2)C=C1` (stereo not drawn) [Example 24], for which the Maximum absorption wavelength in series [1] turned out to be 504 nm; in series [1] (listed as Formula (86)), 599 nm; in series [2], 505 nm; in series [2] (listed as Formula (86)), 607 nm. The A23 in series [2] is listed as 1.32 -; in series [2] (listed as Formula (86)), 1.31 -.

As to `COCCOCCOCCOCCC1(CCOCCOCCOCCOC)c2cc(C(F)(F)F)ccc2-c2c1c1c(c3cc(OC)c(OC)cc23)OC(c2ccc(OC)cc2)(c2ccc(N(C)c3ccccc3)cc2)C=C1` (stereo not drawn) [Example 51], the Maximum absorption wavelength in series [1] was found to be 482 nm; in series [1] (listed as Formula (89)), 603 nm; in series [2], 486 nm; in series [2] (listed as Formula (89)) it was 612 nm. The A23 in series [2] is on record as 0.46 -; in series [2] (listed as Formula (89)), 0.45 -.

For the compound `COCCCCC1(CCCCOC)c2ccccc2-c2c1c1c(c3cc(-c4ccc(OC)cc4OC)c(OC)cc23)OC(c2ccc(N(C)c3ccccc3)cc2)(c2ccc3c(c2)CCO3)C=C1` (stereo not drawn) [Example 62], the Maximum absorption wavelength is given as 477 nm in series [1], 587 nm in series [1] (listed as Formula (124)), 479 nm in series [2] and 594 nm in series [2] (listed as Formula (124)). In addition, the A23 is 1.02 - in series [2] and 1.11 - in series [2] (listed as Formula (124)).

On to `CCCc1ccc(C2(c3ccc(N(C)c4ccccc4)cc3)C=Cc3c4c(c5cc(Sc6c(C)cccc6C)c(OC)cc5c3O2)-c2ccccc2C42CC(C)(C)CC(C)(C)C2)cc1` (stereo not drawn) [Example 5], for which the Maximum absorption wavelength in series [1] was 509 nm; in series [1] (listed as Formula (51)) it was 591 nm; in series [2] it was 511 nm; in series [2] (listed as Formula (51)), 598 nm. Moreover, the results for the A23 in series [2] and in series [2] (listed as Formula (51)) were 0.56 - and 0.69 -, respectively.

As for `CCCC1(CCC)c2cc(OC)ccc2-c2c1c1c(c3cc(OC)ccc23)OC(c2ccc(OC)cc2)(c2ccc(N(C)c3ccccc3)cc2)C=C1` (stereo not drawn) [Example 3], the Maximum absorption wavelength was found to be 470 nm in series [1], 612 nm in series [1] (listed as Formula (46)), 472 nm in series [2] and 619 nm in series [2] (listed as Formula (46)). Further, the A23 in series [2] is on record as 0.59 -; in series [2] (listed as Formula (46)), 1.16 -.

For `CCC1(CC)CCC2(CC1)c1cc(OC(F)(F)F)ccc1-c1c2c2c(c3cc(OC)ccc13)OC(c1ccc(N(C)c3ccccc3)cc1)(c1ccc(OC)c(C)c1)C=C2` (stereo not drawn) [Example 16], the Maximum absorption wavelength turned out to be 472 nm in series [1], 584 nm in series [1] (listed as Formula (77)), 475 nm in series [2] and 593 nm in series [2] (listed as Formula (77)). Besides, the A23 in series [2] is on record as 0.47 -; in series [2] (listed as Formula (77)) it was 0.86 -.

In the case of `CCCCN(c1ccccc1)c1ccc(C2(c3ccc(C)cc3)C=Cc3c4c(c5cc(N6CCOCC6)c(OC)cc5c3O2)-c2ccccc2C4(CC)CC)cc1` (stereo not drawn) [Example 10], the Maximum absorption wavelength in series [1] stood at 512 nm; in series [1] (listed as Formula (62)), 598 nm; in series [2] it was 519 nm; in series [2] (listed as Formula (62)) it was 600 nm. The figures for the A23 in series [2] and in series [2] (listed as Formula (62)) were 1.41 - and 1.09 -, respectively.

With `CCN(c1ccc(OC)cc1)c1ccc(C2(c3ccc(OC)cc3)C=Cc3c4c(c5cc(-c6ccc(N7CCOCC7)cc6)c(OC)cc5c3O2)-c2ccccc2C4(C)C)cc1` (stereo not drawn) [Example 25], the Maximum absorption wavelength in series [1] stood at 505 nm; in series [1] (listed as Formula (88)), 605 nm; in series [2] it was 505 nm; in series [2] (listed as Formula (88)), 613 nm. Moreover, the A23 in series [2] is listed as 0.88 -; in series [2] (listed as Formula (88)), 0.96 -.
